Experimental data published in paper PMC10999543, “Identification of kinase modulators as host-directed therapeutics against intracellular methicillin-resistant Staphylococcus aureus” (Frontiers in Cellular and Infection Microbiology, 2024).
Read-outs that look alike come from different tables or passages of the source.

Assays:
intracellular MRSA = format: cell-based, Staphylococcus aureus; conditions: for %GFP+ rep 1 / z-scoreMRSA+ rep 1: replicate 1; for %GFP+ rep 2 / z-scoreMRSA+ rep 2: replicate 2; for %GFP+ rep 3 / z-scoreMRSA+ rep 3: replicate 3; for z-scoreMRSA+ mean: mean of 3 replicates; for %GFP+ rep 1: test concentration or dose not given here; for %GFP+ rep 2: test concentration or dose not given here; for %GFP+ rep 3: test concentration or dose not given here; for effect: test concentration or dose not given here; for z-scoreMRSA+ mean: test concentration or dose not given here; for z-scoreMRSA+ rep 1: test concentration or dose not given here; for z-scoreMRSA+ rep 2: test concentration or dose not given here; for z-scoreMRSA+ rep 3: test concentration or dose not given here
Procedure, shortened: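 Values are z-scores: GFP-positive HeLa percentage and event count per well against plate statistics, minus the mean DMSO z-score. Wells deviating two-fold from controls were left out of plate means. Infection was at a mean MOI of 6.8, with an overnight compound exposure.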

HeLa cells = assay: Compound screen by flow cytometry: HeLa cell count as surrogate readout of cell viability (z-scoreHeLa); format: cell-based, human; conditions: for cell count rep 1 / z-scoreHeLa rep 1: replicate 1; for cell count rep 2 / z-scoreHeLa rep 2: replicate 2; for cell count rep 3 / z-scoreHeLa rep 3: replicate 3; for z-scoreHeLa mean: mean of 3 replicates; for all read-outs here: test concentration or dose not given here
Procedure, shortened: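 The viability surrogate was the count of fixed HeLa cells by flow cytometry, converted to z-scores against DMSO controls with values deviating two-fold excluded. Before counting, cells had been infected with MRSA for 1 h and cleared of extracellular bacteria with gentamicin. They were then exposed overnight to kinase inhibitors in triplicate.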

[1] = PKIS compound screen raw data, MRSA-infected HeLa cells
[2] = PKIS compound screen, MRSA-infected HeLa cells
[3] = PKIS compound screen, Yes/No call
[4] = PKIS compound screen, Yes/No call (effect without cell death)
[5] = PKIS compound screen, Yes/No call on z-scoreMRSA+
[6] = PKIS compounds raw data, MRSA-infected HeLa cells
[7] = PKIS compound screen raw data, HeLa cell count
[8] = PKIS compound screen, HeLa cell count
[9] = PKIS compound screen, Yes/No call on z-scoreHeLa
[10] = PKIS compounds raw data, HeLa cell count
[11] = Yes/No: effect without cell death
[12] = compound screen, MRSA-infected HeLa cells
[13] = compound screen, HeLa cell count

| SMILES | %GFP+ rep 1 (intracellular MRSA; [1]) [%] | %GFP+ rep 2 (intracellular MRSA; [1]) [%] | %GFP+ rep 3 (intracellular MRSA; [1]) [%] | effect (intracellular MRSA; [3]) | hit (intracellular MRSA; [4]) | z-scoreMRSA+ mean (intracellular MRSA; PKIS compound screen) | z-scoreMRSA+ rep 1 (intracellular MRSA; PKIS compound screen) | z-scoreMRSA+ rep 2 (intracellular MRSA; PKIS compound screen) | z-scoreMRSA+ rep 3 (intracellular MRSA; PKIS compound screen) | %GFP+ rep 1 (intracellular MRSA; [6]) [%] | %GFP+ rep 2 (intracellular MRSA; [6]) [%] | %GFP+ rep 3 (intracellular MRSA; [6]) [%] | cell death (HeLa cells; [3]) | z-scoreHeLa mean (HeLa cells; PKIS compound screen) | z-scoreHeLa rep 1 (HeLa cells; PKIS compound screen) | z-scoreHeLa rep 2 (HeLa cells; PKIS compound screen) | z-scoreHeLa rep 3 (HeLa cells; PKIS compound screen) | cell count rep 1 (HeLa cells; [10]) | cell count rep 2 (HeLa cells; [10]) | cell count rep 3 (HeLa cells; [10]) | also measured |
| --- | --- | --- | --- | --- | --- | --- | --- | --- | --- | --- | --- | --- | --- | --- | --- | --- | --- | --- | --- | --- | --- |
| Cc1ccc(NC(=O)c2ccnc(N3CCN(C)CC3)c2)cc1-c1ccc(C(=O)NCC2CC2)cc1 [GW775604X] | 22.9 | 25.3 | 27.3 | No | No | -0.35 | -0.34 | -0.43 | -0.27 | 25.3 | 23.8 | 25.8 | No | 0.09 | -0.44 | 1.03 | -0.32 | 5307 | 7562 | 5095 | z-scoreMRSA+ mean (intracellular MRSA; [2]): 1.46; z-scoreMRSA+ rep 1 (intracellular MRSA; [2]): 1.10; z-scoreMRSA+ rep 2 (intracellular MRSA; [2]): 1.61; z-scoreMRSA+ rep 3 (intracellular MRSA; [2]): 1.66; effect (intracellular MRSA; [5]): No; cell count rep 1 (HeLa cells; [7]): 20638; cell count rep 2 (HeLa cells; [7]): 17919; cell count rep 3 (HeLa cells; [7]): 18503; z-scoreHeLa mean (HeLa cells; [8]): -0.99; z-scoreHeLa rep 1 (HeLa cells; [8]): -1.62; z-scoreHeLa rep 2 (HeLa cells; [8]): -1.26; z-scoreHeLa rep 3 (HeLa cells; [8]): -0.08; cell death (HeLa cells; [9]): No |
| COc1ccc(CNC(=O)NC2CCN(c3ccnc(Nc4ccc(OC)cc4)n3)C2)cc1 (centres unmarked) [GSK1379727A] |  |  |  | No | No | 1.14 | 0.96 | 1.05 | 1.40 | 32.0 | 31.5 | 34.8 | No | 0.68 | 0.99 | 0.43 | 0.62 | 7697 | 6658 | 6574 |  |
| Nc1ncnc2occ(-c3ccc(NC(=O)Nc4cc(C(F)(F)F)ccc4F)cc3)c12 [GW770249X] |  |  |  |  |  |  |  |  |  | 10.7 | 11.5 | 11.5 |  |  |  |  |  | 2336 | 2249 | 3259 | effect (intracellular MRSA; Yes/No call from z-scoreMRSA+): No; hit (intracellular MRSA; [11]): No; z-scoreMRSA+ mean (intracellular MRSA; [12]): -0.92; z-scoreMRSA+ rep 1 (intracellular MRSA; [12]): -0.79; z-scoreMRSA+ rep 2 (intracellular MRSA; [12]): -0.67; z-scoreMRSA+ rep 3 (intracellular MRSA; [12]): -1.30; cell death (HeLa cells; Yes/No call from z-scoreHeLa): No; z-scoreHeLa mean (HeLa cells; [13]): -1.83; z-scoreHeLa rep 1 (HeLa cells; [13]): -2.21; z-scoreHeLa rep 2 (HeLa cells; [13]): -1.53; z-scoreHeLa rep 3 (HeLa cells; [13]): -1.77 |
| O=C(Nc1n[nH]c2nc(-c3ccccc3)c(Br)cc12)C1CC1 [SB-708998] | 14.4 | 13.9 | 15.7 | No | No | 0.31 | 0.75 | -0.18 | 0.38 | 30.9 | 25.1 | 29.3 | No | 0.29 | -0.0543 | 0.46 | 0.46 | 5956 | 6708 | 6327 | z-scoreMRSA+ mean (intracellular MRSA; [2]): -1.40; z-scoreMRSA+ rep 1 (intracellular MRSA; [2]): -1.17; z-scoreMRSA+ rep 2 (intracellular MRSA; [2]): -1.50; z-scoreMRSA+ rep 3 (intracellular MRSA; [2]): -1.51; effect (intracellular MRSA; [5]): No; cell count rep 1 (HeLa cells; [7]): 29154; cell count rep 2 (HeLa cells; [7]): 28936; cell count rep 3 (HeLa cells; [7]): 20350; z-scoreHeLa mean (HeLa cells; [8]): 0.24; z-scoreHeLa rep 1 (HeLa cells; [8]): -0.18; z-scoreHeLa rep 2 (HeLa cells; [8]): 0.63; z-scoreHeLa rep 3 (HeLa cells; [8]): 0.28; cell death (HeLa cells; [9]): No |
| Cc1cc(N2CCC(NS(=O)(=O)c3ccc(F)cc3)CC2)nc(Nc2cccc(C#N)c2)n1 [GSK1653537A] | 23.5 | 20.6 | 22.3 |  |  |  |  |  |  |  |  |  |  |  |  |  |  |  |  |  | effect (intracellular MRSA; Yes/No call from z-scoreMRSA+): No; hit (intracellular MRSA; [11]): No; z-scoreMRSA+ mean (intracellular MRSA; [12]): -0.29; z-scoreMRSA+ rep 1 (intracellular MRSA; [12]): -0.41; z-scoreMRSA+ rep 2 (intracellular MRSA; [12]): -0.49; z-scoreMRSA+ rep 3 (intracellular MRSA; [12]): 0.03; cell count rep 1 (HeLa cells; [7]): 5368; cell count rep 2 (HeLa cells; [7]): 4678; cell count rep 3 (HeLa cells; [7]): 5821; cell death (HeLa cells; Yes/No call from z-scoreHeLa): No; z-scoreHeLa mean (HeLa cells; [13]): 0.46; z-scoreHeLa rep 1 (HeLa cells; [13]): 0.73; z-scoreHeLa rep 2 (HeLa cells; [13]): 0.29; z-scoreHeLa rep 3 (HeLa cells; [13]): 0.37 |
| NS(=O)(=O)c1ccc(N/N=C2\C(=O)Nc3ccc(Cl)cc32)cc1 [GW280670X] |  |  |  | No | No | 6.79 | 7.09 | 11.94 | 1.34 | 35.3 | 49.2 | 20.4 | No | 0.17 | -0.14 | 0.27 | 0.37 | 4621 | 4629 | 7741 |  |
